Key:
[1] = tested on: Patients; assay: MultiVitamins and Probucol (MVP) randomized clinical trial, angiographic and clinical endpoints; format: in vivo, human
Excerpt: It was not possible to determine with angiography alone whether probucol acted via inhibition of tissue hyperplasia or improvement in vascular remodeling. […] In addition, the invention enables the skilled practitioner to use probucol in conjunction with other percutaneous coronary interventions such as stenting if it is deemed appropriate.
The present invention concerns the IVUS substudy from the MVP restenosis trial. MVP was a double-blind placebo-controlled randomized clinical trial with four study groups. The protocol was approved by the Montreal Heart Institute institutional review board. The MVP study design, inclusion and exclusion criteria have been previously described (N Engl J Med 1997; 365-372). Briefly, patients referred for elective coronary angioplasty were evaluated at least 30 days prior to their scheduled procedure. Eligible patients were asked to provide written informed consent. Patients were eligible if they were scheduled to undergo standard balloon angioplasty on at least one native coronary artery and had at least one de novo target lesion with luminal narrowing of fifty percent or more by caliper measurements.
Beginning thirty days prior to scheduled angioplasty, patients were randomly assigned to receive either probucol alone, multivitamins alone, the combination of probucol and multivitamins, or placebo. Probucol 500 mg or matched placebo was administered twice daily. The multivitamin complex, consisting of vitamin E 700 IU, vitamin C 500 mg and beta-carotene 30,000 IU, or matched placebo was also administered in one tablet twice daily. All patients received an extra dose of probucol 1000 mg and/or vitamin E 2000 IU and/or matched placebos twelve hours before angioplasty, according to randomization assignment. […] All patients received aspirin 325 mg daily started at least thirty days before procedure and continued for the study period. Balloon angioplasty was performed according to standard techniques. Intracoronary nitroglycerin (0.3 mg) was given for each target artery for both pre- and post-dilatation angiography and at follow-up. The sequence of contrast injections with the exact degree of angulation was recorded and used for every angiogram. Coronary arteriograms (pre-, post-procedure, and final follow-up) were analyzed together using the Coronary Measurement System (CMS), as previously reported. Patient follow-up included clinical evaluation, exercise treadmill testing, blood chemistry, pill count and drug level measurements, and dietary assessment and intervention. Patients were readmitted for follow-up coronary angiography at five to seven months. […]

[2] = tested on: Patients; assay: IVUS substudy of the MVP restenosis trial; format: in vivo, human
Excerpt: Serial intravascular ultrasound (IVUS) examinations have been performed in a consecutive series of patients involved in the MVP trial. By providing tomographic views of coronary arteries with high resolution, IVUS allows quantitative assessment of changes in arterial lumen and wall dimensions. We were therefore able in this study to determine the pathophysiology of coronary restenosis after balloon angioplasty in patients systematically undergoing follow-up IVUS examination and determine the effect of probucol on tissue hyperplasia and vascular remodeling after coronary angioplasty. The present invention concerns the IVUS substudy from the MVP restenosis trial. MVP was a double-blind placebo-controlled randomized clinical trial with four study groups. The protocol was approved by the Montreal Heart Institute institutional review board. The MVP study design, inclusion and exclusion criteria have been previously described (N Engl J Med 1997; 365-372). Briefly, patients referred for elective coronary angioplasty were evaluated at least 30 days prior to their scheduled procedure. Eligible patients were asked to provide written informed consent. […] The sequence of contrast injections with the exact degree of angulation was recorded and used for every angiogram. Coronary arteriograms (pre-, post-procedure, and final follow-up) were analyzed together using the Coronary Measurement System (CMS), as previously reported. […] Patients were readmitted for follow-up coronary angiography at five to seven months. […] IVUS imaging was monitored by an experienced cardiologist, but the angioplasty operator was blinded to ultrasound results to avoid altering standard balloon angioplasty practice. […] One angiographic view was recorded on videotape before beginning pullback of the IVUS catheter. […] Simultaneous high-resolution fluoroscopic images were recorded on the IVUS imaging screen during pullbacks to constantly know the location of the IVUS transducer. […]

[3] = tested on: LDL; assay: ex vivo copper-induced LDL peroxidation, monitoring of diene conjugates (lag phase); parameters: species or system human; details: treatment for one month; preliminary results
Excerpt: Dietary intervention and smoking habits were similar in all groups. Probucol may simply be a more powerful antioxidant than the combination of vitamins. To this regard, preliminary results from the continuous spectrophotometric monitoring of diene conjugates in LDL after the addition of copper ions to the isolated lipoprotein ex vivo (Free Radic Res Commun 1989; 6:67-75) of MVP patients are noteworthy.

[4] = drug concentration in liquid formulations (liquid chromatography / HPLC assay); format: physicochemical; details: 4 mg/ml PEG 200 formulation
Excerpt: In accordance with exemplary embodiments of the present invention, a series of liquid formulations were developed for the local or regional delivery of water insoluble compounds such as sirolimus and its analogs, including CCl-779, ABT-578 and everolimus, through weeping balloons and catheter injection needles. […] These liquid formulations increase the apparent solubility of the pharmacologically active but water insoluble compounds by two to four orders of magnitude as compared to the solubility limits of the compounds in water. These liquid formulations rely on the use of a very small amount of organic solvents such as Ethanol (typically less than two percent) and a larger amount of safe amphiphilic (of or relating to a molecule having a polar, water soluble group attached to a non-polar, water insoluble […]) excipients such as polyethylene glycol (PEG 200, PEG 400) and vitamin E TPGS to enhance the solubility of the compounds. These liquid formulations of highly water insoluble compounds are stable and readily flowable at room temperature. Certain excipients, such as Vitamin E TPGS and BHT may be utilized to enhance the storage stability of sirolimus compounds through their anti-oxidation properties. […]

| concentration relative to the solubility of sirolimus in water [4] | Structure (SMILES) | patients in whom restenosis still occurred ([1]; probucol alone) | reduction in restenosis rate per segment compared to placebo ([1]; probucol given alone) | reduction in the need for repeat angioplasty compared to placebo ([1]; probucol given alone, at 6 month) | reduction in angiographic lumen loss compared to placebo ([1]; probucol given alone, thirty days before and six months after angioplasty) | Lumen area (mm^2), Follow-up Post PTCA (change) ([2]; efficacy analysis in compliant patients) [mm^2] | Lumen area (mm^2), Follow-up Post PTCA (change) ([2]; per segment analysis, Placebo −1.21 ± 1.88) [mm^2] | increase in vessel enlargement ([2]; probucol only versus placebo (EEM 1.74 versus 0.29 mm^2)) | protection against LDL oxidation (lag phase for LDL peroxidation) [3] |
| --- | --- | --- | --- | --- | --- | --- | --- | --- | --- |
| – | CC(C)(Sc1cc(C(C)(C)C)c(O)c(C(C)(C)C)c1)Sc1cc(C(C)(C)C)c(O)c(C(C)(C)C)c1 [Probucol Alone, 4,4′-([1-methylethylidene)bis(thio)]bis-[2,6-bis(1,1-dimethylethyl)phenol]] | over twenty | forty-seven | fifty-eight | sixty-eight | −0.15 ± 1.70 | −0.15 ± 1.70 | seven hundred-thirty | significantly greater protection against LDL oxidation than vitamins alone or the combination of probucol and vitamins |
| four hundred to about one thousand | CO[C@H]1C[C@@H]2CC[C@@H](C)[C@@](O)(O2)C(=O)C(=O)N2CCCC[C@H]2C(=O)O[C@H]([C@H](C)C[C@@H]2CC[C@@H](O)[C@H](OC)C2)CC(=O)[C@H](C)/C=C(\C)[C@@H](O)[C@@H](OC)C(=O)[C@H](C)C[C@H](C)/C=C/C=C/C=C/1C [rapamycin] | – | – | – | – | – | – | – | – |
